Assay: Acute Toxicity (7-day, single application per os)
Settings: in vivo, po, single application p.o., NMRI mouse on an empty stomach
Procedure: The acute 7-day toxicity is determined after a single application per os on the white NMRI mouse, on an empty stomach, and the LD50 values are calculated by means of electronic data processing through a probit analysis.
With `COCC1CN=C(c2ccccc2Cl)c2cc(Br)ccc2N1C` (stereo not drawn) the LD50 at 168 h was over 1470 mg/kg. With `CN1c2ccc(Br)cc2C(c2ccccc2Cl)=NCC1CO` (stereo not drawn) the LD50 at 168 h was over 1470 mg/kg. Molecule `COCC1CN=C(c2ccccc2Cl)c2cc(Br)ccc2N1` (stereo not drawn) [Ex 2, 7-Bromo-2-methoxymethyl-5-(2-chlorophenyl)-1H-2,3-dihydro-1,4-benzodiazepin] has an LD50 at 168 h of 1330 mg/kg. For `OCC1CN=C(c2ccccc2Cl)c2cc(Br)ccc2N1` (stereo not drawn) [Ex 4, 7-Bromo-2-hydroxymethyl-5-(2-chlorophenyl)-1H-2,3-dihydro-1,4-benzodiazepine], the LD50 at 168 h was over 1370 mg/kg.

Assay: Rotating rod test (muscular coordination impairing activity)
Settings: mouse, in vivo, po
Procedure: The ability of muscular coordination is determined in the mouse by the rotating rod test according to Blum (1973).
For this test, only male NMRI mice are used, which can support themselves for five minutes on a rotating rod with a diameter of 4 cm at a rotational speed of 12 rotations per minute.
The test substances are administered orally to the animals one hour before the commencement of the test in the form of a 2% suspension in tylose solution. The animals are each placed twice for a period of 60 seconds onto the rotating rod. Animals which cannot support themselves on the rotating rod for a total of 110 seconds are regarded as having impaired muscular coordination. The dose which brings about an impairment in 50% of the animals is regarded as the ED50.
(§1) In columns 5 and 6 of the Table, the quotients which result from dividing the doses impairing muscular coordination or muscle tone by the anxiolytically effective doses are indicated.
Work on `COCC1CN=C(c2ccccc2Cl)c2cc(Br)ccc2N1C` (stereo not drawn) yielded a selectivity ratio of 1.11. In the case of `CN1c2ccc(Br)cc2C(c2ccccc2Cl)=NCC1CO` (stereo not drawn), the selectivity ratio was 1.3. Work on `COCC1CN=C(c2ccccc2Cl)c2cc(Br)ccc2N1` (stereo not drawn) [Ex 2, 7-Bromo-2-methoxymethyl-5-(2-chlorophenyl)-1H-2,3-dihydro-1,4-benzodiazepin] yielded a selectivity ratio of 5.38. `OCC1CN=C(c2ccccc2Cl)c2cc(Br)ccc2N1` (stereo not drawn) [Ex 4, 7-Bromo-2-hydroxymethyl-5-(2-chlorophenyl)-1H-2,3-dihydro-1,4-benzodiazepine] gave a selectivity ratio of 8.6.

Assay: Traction test (muscle relaxant activity / disturbance of muscle tone)
Settings: mouse, in vivo, po
Procedure: In this test the influence of the test substances on the muscle tone is evaluated. The test substance is administered orally to mice. After 120 minutes the mice are suspended by their front paws on a thin, horizontally taut wire. The dose at which exactly half the animals fail to also grasp the wire with their hind paws within 5 seconds is regarded as the ED50.
as §1
With `COCC1CN=C(c2ccccc2Cl)c2cc(Br)ccc2N1C` (stereo not drawn) the selectivity ratio was 7.38. In the case of `CN1c2ccc(Br)cc2C(c2ccccc2Cl)=NCC1CO` (stereo not drawn), the selectivity ratio was 38.8. Molecule `COCC1CN=C(c2ccccc2Cl)c2cc(Br)ccc2N1` (stereo not drawn) [Ex 2, 7-Bromo-2-methoxymethyl-5-(2-chlorophenyl)-1H-2,3-dihydro-1,4-benzodiazepin] has a selectivity ratio of 54.2. With `OCC1CN=C(c2ccccc2Cl)c2cc(Br)ccc2N1` (stereo not drawn) [Ex 4, 7-Bromo-2-hydroxymethyl-5-(2-chlorophenyl)-1H-2,3-dihydro-1,4-benzodiazepine] the selectivity ratio was 164.

Source: patent publication US4505908A, “7-Bromo-5-(2-halophenyl)-1H-2,3-dihydro-1,4-benzodiazepine pharmaceuticals” (priority 1981, dated 1985)
